Test system: MV-4-11 cells
Assay: Gene expression microarray analysis (Affymetrix PrimeView) and GSEA
Type: cell-based, human
Set-up: RFU PODN (11730768_x_at) / Fold change /veh PODN (11730768_x_at) / RFU LINC00158 (11744669_a_at) / Fold change /veh LINC00158 (11744669_a_at) / RFU DUSP10 (11751237_a_at) / Fold change /veh DUSP10 (11751237_a_at) / RFU ID3 (11757404_x_at) / Fold change /veh ID3 (11757404_x_at) / RFU PLEKHG5 (11737974_s_at) / Fold change /veh PLEKHG5 (11737974_s_at) / RFU LRRC4B (11730491_at) / Fold change /veh LRRC4B (11730491_at) / RFU GIMAP4 (11747438_a_at) / Fold change /veh GIMAP4 (11747438_a_at) / RFU KRT8 (11758183_x_at) / Fold change /veh KRT8 (11758183_x_at) / RFU CNN1 (11734310_a_at) / Fold change /veh CNN1 (11734310_a_at) / RFU VPS37D (11726825_at) / Fold change /veh VPS37D (11726825_at) / RFU C10orf10 (11716522_x_at) / Fold change /veh C10orf10 (11716522_x_at) / RFU KIR2DL2 /// KIR2DL4 /// KIR2DL5A /// KIR2DL5B /// KIR2DS1 /// KIR2DS2 /// KIR2DS3 /// KIR2DS4 /// KIR3DL3 /// KIR3DL3 /// KIR3DS1 (11738374_at) / Fold change /veh KIR2DL2 /// KIR2DL4 /// KIR2DL5A /// KIR2DL5B /// KIR2DS1 /// KIR2DS2 /// KIR2DS3 /// KIR2DS4 /// KIR3DL3 /// KIR3DL3 /// KIR3DS1 (11738374_at) / RFU C1QL1 (11718748_at) / Fold change /veh C1QL1 (11718748_at) / RFU TMPRSS4 (11747572_a_at) / Fold change /veh TMPRSS4 (11747572_a_at) / RFU HAMP (11756126_x_at) / Fold change /veh HAMP (11756126_x_at) / RFU RNFT2 (11725882_a_at) / Fold change /veh RNFT2 (11725882_a_at) / RFU NR4A2 (11747474_a_at) / Fold change /veh NR4A2 (11747474_a_at) / RFU ABCC12 (11746883_a_at) / Fold change /veh ABCC12 (11746883_a_at) / RFU TMEM136 (11760407_x_at) / Fold change /veh TMEM136 (11760407_x_at) / RFU CLDN22 /// WWC2 (11732394_at) / Fold change /veh CLDN22 /// WWC2 (11732394_at) / RFU HLA-DPB1 (11760878_x_at) / Fold change /veh HLA-DPB1 (11760878_x_at) / RFU SPINT1 (11716480_a_at) / Fold change /veh SPINT1 (11716480_a_at) / RFU GAP43 (11754022_s_at) / Fold change /veh GAP43 (11754022_s_at) / RFU A4GNT (11735810_at) / Fold change /veh A4GNT (11735810_at) / RFU PRB3 (11715151_x_at) / Fold change /veh PRB3 (11715151_x_at) / RFU TUBB4B (11761932_at) / Fold change /veh TUBB4B (11761932_at) / RFU CAPN14 (11732068_a_at) / Fold change /veh CAPN14 (11732068_a_at) / RFU TMCC2 (11721928_a_at) / Fold change /veh TMCC2 (11721928_a_at) / RFU IRGQ (11745062_a_at) / Fold change /veh IRGQ (11745062_a_at) / RFU FAM174B (11720279_a_at) / Fold change /veh FAM174B (11720279_a_at) / RFU TMPRSS4 (11748680_a_at) / Fold change /veh TMPRSS4 (11748680_a_at) / RFU FAM212B (11763350_a_at) / Fold change /veh FAM212B (11763350_a_at) / RFU PLEKHG5 (11743358_a_at) / Fold change /veh PLEKHG5 (11743358_a_at) / RFU ZSCAN30 (11745921_a_at) / Fold change /veh ZSCAN30 (11745921_a_at) / RFU CMKLR1 (11741424_a_at) / Fold change /veh CMKLR1 (11741424_a_at) / RFU LOC101060620 /// MAPK8IP1 (11723275_at) / Fold change /veh LOC101060620 /// MAPK8IP1 (11723275_at) / RFU SPTSSB (11747773_x_at) / Fold change /veh SPTSSB (11747773_x_at) / RFU PRSS12 (11739890_at) / Fold change /veh PRSS12 (11739890_at) / RFU BIN1 (11741810_x_at) / Fold change /veh BIN1 (11741810_x_at) / RFU WNT11 (11732464_a_at) / Fold change /veh WNT11 (11732464_a_at) / RFU C10orf10 (11716521_a_at) / Fold change /veh C10orf10 (11716521_a_at) / RFU C5orf56 (11738089_at) / Fold change /veh C5orf56 (11738089_at) / RFU CYB561 (11721691_x_at) / Fold change /veh CYB561 (11721691_x_at) / RFU ANKRD19P (11752326_a_at) / Fold change /veh ANKRD19P (11752326_a_at) / RFU OR2T12 /// OR2T33 /// OR2T8 (11738714_s_at) / Fold change /veh OR2T12 /// OR2T33 /// OR2T8 (11738714_s_at) / RFU VCAN (11748164_a_at) / Fold change /veh VCAN (11748164_a_at) / RFU JSRP1 (11732532_at) / Fold change /veh JSRP1 (11732532_at) / RFU KRTAP10-11 (11738290_x_at) / Fold change /veh KRTAP10-11 (11738290_x_at) / RFU MYO3A (11730013_a_at) / Fold change /veh MYO3A (11730013_a_at) / RFU EBF3 (11725865_a_at) / Fold change /veh EBF3 (11725865_a_at) / RFU CAMK2N1 (11719241_x_at) / Fold change /veh CAMK2N1 (11719241_x_at) / RFU C5orf56 (11738088_a_at) / Fold change /veh C5orf56 (11738088_a_at) / RFU OLFML3 (11715873_a_at) / Fold change /veh OLFML3 (11715873_a_at) / RFU LOC100653217 /// NTM (11731650_a_at) / Fold change /veh LOC100653217 /// NTM (11731650_a_at) / RFU MAPK11 (11762145_a_at) / Fold change /veh MAPK11 (11762145_a_at) / RFU FIZ1 (11724087_x_at) / Fold change /veh FIZ1 (11724087_x_at) / RFU OASL (11726364_x_at) / Fold change /veh OASL (11726364_x_at) / RFU SOX15 (11748057_x_at) / Fold change /veh SOX15 (11748057_x_at) / RFU CD79A (11719716_a_at) / Fold change /veh CD79A (11719716_a_at) / RFU HIST1H1D (11736915_at) / Fold change /veh HIST1H1D (11736915_at) / RFU CASKIN2 (11723855_a_at) / Fold change /veh CASKIN2 (11723855_a_at) / RFU LOC730098 (11760151_x_at) / Fold change /veh LOC730098 (11760151_x_at) / RFU OR4N2 (11742367_at) / Fold change /veh OR4N2 (11742367_at) / RFU PRRT2 (11749266_a_at) / Fold change /veh PRRT2 (11749266_a_at) / RFU SNX32 (11753110_a_at) / Fold change /veh SNX32 (11753110_a_at) / RFU CDHR5 (11726645_a_at) / Fold change /veh CDHR5 (11726645_a_at) / RFU RCAN1 (11760418_a_at) / Fold change /veh RCAN1 (11760418_a_at) / RFU FAM167A (11723789_a_at) / Fold change /veh FAM167A (11723789_a_at) / RFU FAM26E (11764081_at) / Fold change /veh FAM26E (11764081_at) / RFU ISYNA1 (11749810_s_at) / Fold change /veh ISYNA1 (11749810_s_at) / RFU ACY1 (11761880_at) / Fold change /veh ACY1 (11761880_at) / RFU 11764098_at / Fold change /veh 11764098_at / RFU SAMD14 (11745864_x_at) / Fold change /veh SAMD14 (11745864_x_at) / RFU NPB (11741838_a_at) / Fold change /veh NPB (11741838_a_at) / RFU TMPRSS6 (11731388_a_at) / Fold change /veh TMPRSS6 (11731388_a_at) / RFU KRTAP10-2 (11738614_at) / Fold change /veh KRTAP10-2 (11738614_at) / RFU ARHGAP8 /// PRR5-ARHGAP8 (11727945_x_at) / Fold change /veh ARHGAP8 /// PRR5-ARHGAP8 (11727945_x_at) / RFU KRTAP5-7 /// NADSYN1 (11734609_at) / Fold change /veh KRTAP5-7 /// NADSYN1 (11734609_at) / RFU RASL12 (11751679_a_at) / Fold change /veh RASL12 (11751679_a_at) / RFU CDKN2B (11736163_a_at) / Fold change /veh CDKN2B (11736163_a_at) / RFU PRF1 (11729649_at) / Fold change /veh PRF1 (11729649_at) / RFU, ZNF638 /// ZNF638-IT1 / Fold change vs veh, ZNF638 /// ZNF638-IT1 / RFU, PANK3 / Fold change vs veh, PANK3 / RFU, SH3YL1 / Fold change vs veh, SH3YL1 / RFU, ZEB2 / Fold change vs veh, ZEB2 / RFU, NRIP1 / Fold change vs veh, NRIP1 / RFU, PTTG1IP / Fold change vs veh, PTTG1IP / RFU, CAPN2 / Fold change vs veh, CAPN2 / RFU, MED14 / Fold change vs veh, MED14 / RFU, SNORA58 / Fold change vs veh, SNORA58 / RFU, C1orf63 / Fold change vs veh, C1orf63 / RFU, LRRFIP1 / Fold change vs veh, LRRFIP1 / RFU, NDUFAF7 / Fold change vs veh, NDUFAF7 / RFU, SLC12A2 / Fold change vs veh, SLC12A2 / RFU, IBTK / Fold change vs veh, IBTK / RFU, ESF1 / Fold change vs veh, ESF1 / Fold change vs veh, TMEM50B / RFU, TAOK1 / Fold change vs veh, TAOK1 / RFU, ACBD3 / Fold change vs veh, ACBD3 / RFU, TMA16 / Fold change vs veh, TMA16 / RFU, RWDD3 / Fold change vs veh, RWDD3 / RFU, BCAT1 / Fold change vs veh, BCAT1 / RFU, EDEM3 / Fold change vs veh, EDEM3 / RFU, TMEM33 / Fold change vs veh, TMEM33 / RFU, WDR75 / Fold change vs veh, WDR75 / RFU, AHCTF1 / Fold change vs veh, AHCTF1 / RFU, TFRC / Fold change vs veh, TFRC / RFU, ZDHHC17 / Fold change vs veh, ZDHHC17 / RFU, NOM1 / Fold change vs veh, NOM1 / RFU, ARL8B / Fold change vs veh, ARL8B / RFU, ZBTB11 / Fold change vs veh, ZBTB11 / RFU, TAMM41 / Fold change vs veh, TAMM41 / RFU, KIAA1704 /// LOC100996395 / Fold change vs veh, KIAA1704 /// LOC100996395 / RFU, ING1 / Fold change vs veh, ING1 / RFU, TRMT61B / Fold change vs veh, TRMT61B / RFU, FUBP3 / Fold change vs veh, FUBP3 / RFU, TP53 / Fold change vs veh, TP53 / RFU, TNKS2 / Fold change vs veh, TNKS2 / RFU, ZFP14 / Fold change vs veh, ZFP14 / RFU, ACTR2 / Fold change vs veh, ACTR2 / RFU, PPP3R1 / Fold change vs veh, PPP3R1 / RFU, PIK3R1 / Fold change vs veh, PIK3R1 / RFU, HNRNPA1 / Fold change vs veh, HNRNPA1 / RFU, RNF170 / Fold change vs veh, RNF170 / RFU, ZNF28 / Fold change vs veh, ZNF28 / RFU, RNGTT / Fold change vs veh, RNGTT / RFU, OGT / Fold change vs veh, OGT / RFU, BRD1 / Fold change vs veh, BRD1 / RFU, MARS / Fold change vs veh, MARS / RFU, ZNF655 / Fold change vs veh, ZNF655 / RFU, FAHD1 / Fold change vs veh, FAHD1 / RFU, BDP1 / Fold change vs veh, BDP1 / RFU, LRRCC1 / Fold change vs veh, LRRCC1 / RFU, ARID1A / Fold change vs veh, ARID1A / RFU, ZNF146 / Fold change vs veh, ZNF146 / RFU, ZNF330 / Fold change vs veh, ZNF330 / RFU, GPN3 / Fold change vs veh, GPN3 / RFU, C9orf123 / Fold change vs veh, C9orf123 / RFU, N4BP2L2 / Fold change vs veh, N4BP2L2 / RFU, ARFIP1 / Fold change vs veh, ARFIP1 / RFU, FAM179B / Fold change vs veh, FAM179B / RFU, BCL10 / Fold change vs veh, BCL10 / RFU, UHRF1BP1L / Fold change vs veh, UHRF1BP1L / RFU, BET1 / Fold change vs veh, BET1 / RFU, CNOT2 / Fold change vs veh, CNOT2 / RFU, ZNF268 / Fold change vs veh, ZNF268 / Fold change vs veh, ZNF507 / RFU, DGCR2 / Fold change vs veh, DGCR2 / RFU, WDSUB1 / Fold change vs veh, WDSUB1 / Fold change vs veh, HSP90B1 /// MIR3652 / RFU, ADSS / Fold change vs veh, ADSS / RFU, GK / Fold change vs veh, GK / RFU, ZNF148 / Fold change vs veh, ZNF148 / RFU, TAF9 / Fold change vs veh, TAF9 / RFU, SLC1A5 / Fold change vs veh, SLC1A5 / RFU, SLMO2 / Fold change vs veh, SLMO2 / RFU, ABCC4 / Fold change vs veh, ABCC4 / RFU, LOC101060439 /// RAP1B / Fold change vs veh, LOC101060439 /// RAP1B / RFU, RFX7 / Fold change vs veh, RFX7 / RFU, GTPBP10 / Fold change vs veh, GTPBP10 / RFU, CNEP1R1 / Fold change vs veh, CNEP1R1 / RFU, BIVM-ERCC5 /// ERCC5 / Fold change vs veh, BIVM-ERCC5 /// ERCC5 / RFU, ILF3 / Fold change vs veh, ILF3 / RFU 11762660_at / Fold change /veh 11762660_at / RFU VCAN (11757783_s_at) / Fold change /veh VCAN (11757783_s_at) / RFU DDX43 (11728927_at) / Fold change /veh DDX43 (11728927_at) / RFU KRT8 (11758188_x_at) / Fold change /veh KRT8 (11758188_x_at) / RFU NKD1 (11759106_at) / Fold change /veh NKD1 (11759106_at) / RFU SRD5A1 (11742802_a_at) / Fold change /veh SRD5A1 (11742802_a_at) / RFU TPSAB1 /// TPSB2 (11721975_s_at) / Fold change /veh TPSAB1 /// TPSB2 (11721975_s_at) / RFU GSTM3 (11746129_a_at) / Fold change /veh GSTM3 (11746129_a_at) / RFU IL23R (11737362_x_at) / Fold change /veh IL23R (11737362_x_at) / RFU TMEM51 (11727254_a_at) / Fold change /veh TMEM51 (11727254_a_at) / RFU PIWIL2 (11732686_x_at) / Fold change /veh PIWIL2 (11732686_x_at) / RFU ORM1 (11744905_x_at) / Fold change /veh ORM1 (11744905_x_at) / RFU CCDC152 (11743942_at) / Fold change /veh CCDC152 (11743942_at) / RFU ECM1 (11717891_a_at) / Fold change /veh ECM1 (11717891_a_at) / RFU IL23R (11748794_a_at) / Fold change /veh IL23R (11748794_a_at) / RFU TNFAIP8L3 (11732012_x_at) / Fold change /veh TNFAIP8L3 (11732012_x_at) / RFU MBOAT4 (11741988_at) / Fold change /veh MBOAT4 (11741988_at) / RFU 11764193_at / Fold change /veh 11764193_at / RFU TMEM53 (11763286_at) / Fold change /veh TMEM53 (11763286_at) / RFU MAGEB2 (11727129_at) / Fold change /veh MAGEB2 (11727129_at) / RFU TMEM200A (11744735_a_at) / Fold change /veh TMEM200A (11744735_a_at) / RFU CCDC152 (11751479_a_at) / Fold change /veh CCDC152 (11751479_a_at) / RFU FAM211A (11726209_a_at) / Fold change /veh FAM211A (11726209_a_at) / RFU RGS16 (11746705_a_at) / Fold change /veh RGS16 (11746705_a_at) / RFU VCAN (11755009_s_at) / Fold change /veh VCAN (11755009_s_at) / RFU RHOB (11743442_s_at) / Fold change /veh RHOB (11743442_s_at) / RFU RGS16 (11720943_a_at) / Fold change /veh RGS16 (11720943_a_at) / RFU RGS16 (11720944_at) / Fold change /veh RGS16 (11720944_at) / RFU, VPS4B / Fold change vs veh, VPS4B / RFU, CREB1 / Fold change vs veh, CREB1 / RFU, DNAJC13 / Fold change vs veh, DNAJC13 / RFU, GNAQ / Fold change vs veh, GNAQ / RFU, CDK5R1 / Fold change vs veh, CDK5R1 / RFU, ZRANB3 / Fold change vs veh, ZRANB3 / RFU, CUL4A / Fold change vs veh, CUL4A / RFU, CCNY / Fold change vs veh, CCNY / RFU, UFL1 / Fold change vs veh, UFL1 / RFU, COG3 / Fold change vs veh, COG3 / RFU, DIAPH2 / Fold change vs veh, DIAPH2 / RFU, SKA2 / Fold change vs veh, SKA2 / RFU, AFF3 / Fold change vs veh, AFF3 / RFU, LMF1 / Fold change vs veh, LMF1 / RFU, IPO11 / Fold change vs veh, IPO11 / RFU, DFFB / Fold change vs veh, DFFB / RFU, FOXP1 / Fold change vs veh, FOXP1 / RFU, CARD8 / Fold change vs veh, CARD8 / RFU, STRN3 / Fold change vs veh, STRN3 / RFU, ADK / Fold change vs veh, ADK / RFU, RASSF2 / Fold change vs veh, RASSF2 / RFU, WIPF1 / Fold change vs veh, WIPF1 / RFU, LARP1B / Fold change vs veh, LARP1B / RFU, RASA1 / Fold change vs veh, RASA1 / RFU, RB1 / Fold change vs veh, RB1 / RFU, PPFIA1 / Fold change vs veh, PPFIA1 / RFU, MAT2A / Fold change vs veh, MAT2A / RFU, CCT5 / Fold change vs veh, CCT5 / RFU, WDR92 / Fold change vs veh, WDR92 / RFU, CUX1 / Fold change vs veh, CUX1 / RFU, TTC7A / Fold change vs veh, TTC7A / RFU, TMEM135 / Fold change vs veh, TMEM135 / RFU, DEPTOR / Fold change vs veh, DEPTOR / RFU, CPM / Fold change vs veh, CPM / RFU, DNAJB6 / Fold change vs veh, DNAJB6 / RFU, CACNA2D3 / Fold change vs veh, CACNA2D3 / RFU, DTX4 / Fold change vs veh, DTX4 / RFU, TFCP2 / Fold change vs veh, TFCP2 / RFU, GMCL1 /// GMCL1P1 / Fold change vs veh, GMCL1 /// GMCL1P1 / RFU, AEBP2 / Fold change vs veh, AEBP2 / RFU, SNHG1 /// SNORD22 /// SNORD25 /// SNORD26 /// SNORD27 /// SNORD28 /// SNORD29 /// SNORD31 / Fold change vs veh, SNHG1 /// SNORD22 /// SNORD25 /// SNORD26 /// SNORD27 /// SNORD28 /// SNORD29 /// SNORD31 / Fold change (Aza/veh), C12orf56 (ProbeSet 11735607_a_at) / Fold change (ACY-1035/veh), C12orf56 (ProbeSet 11735607_a_at) / Fold change (Aza/veh), FGFR1OP (ProbeSet 11751329_s_at) / Fold change (ACY-1035/veh), FGFR1OP (ProbeSet 11751329_s_at) / Fold change (Aza/veh), VPS36 (ProbeSet 11739960_a_at) / Fold change (ACY-1035/veh), VPS36 (ProbeSet 11739960_a_at) / RFU SYPL1 (11715823_x_at) / Fold change /veh SYPL1 (11715823_x_at) / RFU IGFBP7 (11715501_s_at) / Fold change /veh IGFBP7 (11715501_s_at) / RFU REEP3 (11722064_at) / Fold change /veh REEP3 (11722064_at) / RFU IGLL1 (11728026_x_at) / Fold change /veh IGLL1 (11728026_x_at): dose or concentration left out as unconfirmed
Conditions: ProbeSet 11733831_s_at; LIST D

Nc1ncn([C@@H]2O[C@H](CO)[C@@H](O)[C@H]2O)c(=O)n1 [azacitidine]
Fold change vs veh, GMCL1 /// GMCL1P1: 0.81
